For this assay, the system named is gastric acid secretion. Description: Inhibitory activity on gastric acid secretion, Shay Method (pylorus-ligated rats). In kind it is in vivo, male Wistar rats. The following applies: Rattus norvegicus, 2 h; for ED50: read-out: ED50 (inhibition of gastric acid secretion); for inhibition in vivo at 40 mg/kg: intraduodenal, read-out: Percentage of inhibition of gastric acid secretion. An excerpt:
Inhibitory activity on gastric acid secretion, Shay Method [Shay, H., Komarov, S. A., Fels, S. S., Merange, D., Grvenstein, M., Siplet, H.: Gastroenterology, 5, 43 (1945)--Visscher, F. E., Seay, P. H., Taxelaar, A. P., Veldhamp, W., Vander Brook, M. J.: J. Pharmac. Exp. Ther., 110, 188 (1954)--"Animal Experiments in Pharmacological Analysis", F. R. Domer; C. C. Thomas Pub, Springfield, Ill., USA, 1970, p. 140].
In this test, male Wistar rats weighing 200 to 250 grams are used, which rats are denied food from the day prior to that of the test, with free access to water. Batches which each contain at least 4 animals are used.
The rats are anesthetized with ethyl ether, a laparotomy is carried out on them and their pylori are ligatured, and then the abdominal incision is stitched up. Administration of the products, with the vehicle for the control batch, is carried out intraduodenally (i.d.) before stitching up the abdominal incision. The dose administered for the first test is 40 mg/kg and the 50% effective dose (ED50) by the i.d. route is also determined in a second test. The vehicle used is 5% w/v gum arabic in doubly-distilled water.
Two hours after ligaturing the pylorus, the rats are sacrificed by prolonged anesthesia with ethyl ether and the volume of the gastric juice is measured and the total acidity is determined using a pH meter equipped with an automatic burette. The percentage of inhibition of the gastric acid secretion is determined, with respect to the control batch, for each product and for each dose tested.
The results obtained for some of the derivatives of the present invention are summarized, as non-limiting examples, in Table II.

Setting [1] is: i.d. route, rats, Shay Method, two hours after pylorus ligature.
The mark [2] stands for this setting: Dose = 40 mg/kg, i.d. route, rats, Shay Method, two hours after pylorus ligature.

Structures are written as SMILES. Where two headings read alike, the source gives them in different places.

For `CN/C(=N/CCSCc1nc[nH]c1C)NC#N` [Cimetidine, reference compound], the ED50 stood at 11.5 mg/kg and the inhibition in vivo at 40 mg/kg was determined as 69%.

For the compound `c1cnc(N2CCN(CCCCn3cccc3)CC2)nc1` [Example 1], the ED50 under setting [1] came out at 12 mg/kg. For the same compound, the inhibition in vivo at 40 mg/kg under setting [2] is 90%.

As for `c1cnc(N2CCN(CCCCn3c4ccccc4c4ccccc43)CC2)nc1` [Example 2], under setting [1], the ED50 came to 46 mg/kg. The inhibition in vivo at 40 mg/kg under setting [2] stood at 44%.

With `c1cnc(N2CCN(CCCCn3ccc4ccccc43)CC2)nc1` [Example 3], under setting [1], the ED50 was 30 mg/kg. Under setting [2], the inhibition in vivo at 40 mg/kg came to 63%.

Consider `O=C(O)c1cnn(CCCCN2CCN(c3ncccn3)CC2)c1` [Example 6], for which the ED50 under setting [1] was determined as 52 mg/kg. Besides, the inhibition in vivo at 40 mg/kg under setting [2] turned out to be 41%.

For `Cc1cc(C(F)(F)F)n(CCCCN2CCN(c3ncccn3)CC2)n1` [Example 7], under setting [1], the ED50 turned out to be 47 mg/kg. Also, the inhibition in vivo at 40 mg/kg under setting [2] was 40%.

On to `c1ccc(-c2nc(-c3ccccc3)n(CCCCN3CCN(c4ncccn4)CC3)c2-c2ccccc2)cc1` [Example 9], for which the ED50 under setting [1] was 45 mg/kg. Under setting [2], the inhibition in vivo at 40 mg/kg came to 35%.

For `Cc1nc(-c2ccccc2)c(-c2ccccc2)n1CCCCN1CCN(c2ncccn2)CC1` [Example 10], the ED50 under setting [1] was determined as 19 mg/kg. The inhibition in vivo at 40 mg/kg under setting [2] is 81%.

In the case of `Cc1nc(Cl)c(Cl)n1CCCCN1CCN(c2ncccn2)CC1` [Example 11], under setting [1], the ED50 is 14 mg/kg. Besides, the inhibition in vivo at 40 mg/kg under setting [2] was 81%.

With `CCc1nccn1CCCCN1CCN(c2ncccn2)CC1` [Example 12], the median effective dose (ED50) under setting [1] came to 52 mg/kg. Also, the inhibition in vivo at 40 mg/kg under setting [2] is 37%.

Consider `c1ccc(-c2nccn2CCCCN2CCN(c3ncccn3)CC2)cc1` [Example 13], for which the ED50 under setting [1] amounted to 45 mg/kg. In addition, the inhibition in vivo at 40 mg/kg under setting [2] came out at 44%.

Consider `c1ccc(-c2cn(CCCCN3CCN(c4ncccn4)CC3)cn2)cc1` [Example 15], for which the ED50 under setting [1] turned out to be 36 mg/kg. Under setting [2], the inhibition in vivo at 40 mg/kg turned out to be 53%.

As to `c1cnc(N2CCN(CCCCn3cnc4ccccc43)CC2)nc1` [Example 16], the ED50 under setting [1] stood at 25 mg/kg. In addition, the inhibition in vivo at 40 mg/kg under setting [2] is 71%.

As to `c1cnc(N2CCN(CCCCn3cnc4cccnc43)CC2)nc1` [Example 17], the ED50 under setting [1] came to 19 mg/kg. For the same compound, the inhibition in vivo at 40 mg/kg under setting [2] was determined as 63%.

On to `c1cnc(N2CCN(CCCCn3nnc4ccccc43)CC2)nc1` [Example 19], for which the ED50 under setting [1] came to 42 mg/kg. The inhibition in vivo at 40 mg/kg under setting [2] stood at 49%.

In the case of `c1cnc(N2CCN(CCCCn3cncn3)CC2)nc1` [Example 21], the ED50 under setting [1] was found to be 4.4 mg/kg. In addition, the inhibition in vivo at 40 mg/kg under setting [2] is 71%.

As for `c1cnc(N2CCN(CCCCn3nc4ccccc4n3)CC2)nc1` [Example 22], the ED50 under setting [1] was 34 mg/kg. For the same compound, the inhibition in vivo at 40 mg/kg under setting [2] was 55%.

For `Cc1cc2ncn(CCCCN3CCN(c4ncccn4)CC3)c2cc1C` [Example 24], the ED50 under setting [1] amounted to 36 mg/kg. Moreover, the inhibition in vivo at 40 mg/kg under setting [2] was 59%.

Regarding `c1cnc(N2CCN(CCCCn3cccn3)CC2)nc1` [Example 25], the ED50 under setting [1] worked out at 21 mg/kg. Also, the inhibition in vivo at 40 mg/kg under setting [2] is 85%.

In the case of `Cc1nn(CCCCN2CCN(c3ncccn3)CC2)c(C)c1[N+](=O)[O-]` [Example 27], the ED50 under setting [1] was 17 mg/kg. Moreover, the inhibition in vivo at 40 mg/kg under setting [2] is 63%.

For the compound `c1cnc(N2CCN(CCCCn3ncc4ccccc43)CC2)nc1` [Example 29], the ED50 under setting [1] came out at 21 mg/kg. Also, under setting [2], the inhibition in vivo at 40 mg/kg came to 81%.

As for `O=[N+]([O-])c1cnn(CCCCN2CCN(c3ncccn3)CC2)c1` [Example 31], the ED50 under setting [1] turned out to be 2.7 mg/kg. The inhibition in vivo at 40 mg/kg under setting [2] is 90%.

With `Clc1cnn(CCCCN2CCN(c3ncccn3)CC2)c1` [Example 32], under setting [1], the ED50 stood at 15 mg/kg. Further, the inhibition in vivo at 40 mg/kg under setting [2] was 78%.

For `Cc1cc(-c2ccccc2)n(CCCCN2CCN(c3ncccn3)CC2)n1` [Example 34], the ED50 under setting [1] is 50 mg/kg. Besides, the inhibition in vivo at 40 mg/kg under setting [2] stood at 45%.

In the case of `Brc1cnn(CCCCN2CCN(c3ncccn3)CC2)c1` [Example 35], under setting [1], the ED50 is 11 mg/kg. Also, the inhibition in vivo at 40 mg/kg under setting [2] worked out at 64%.

Take `N#Cc1cnn(CCCCN2CCN(c3ncccn3)CC2)c1` [Example 36]: under setting [1], the ED50 stood at 2.1 mg/kg. The inhibition in vivo at 40 mg/kg under setting [2] worked out at 78%.

As for `Fc1cnn(CCCCN2CCN(c3ncccn3)CC2)c1` [Example 37], under setting [1], the ED50 worked out at 17 mg/kg. Moreover, the inhibition in vivo at 40 mg/kg under setting [2] was 79%.

For `COc1ccc(-c2cnn(CCCCN3CCN(c4ncccn4)CC3)c2)cc1` [Example 44], the ED50 under setting [1] worked out at 31 mg/kg. For the same compound, the inhibition in vivo at 40 mg/kg under setting [2] stood at 81%.

`c1ccc(-c2ccc(-c3cnn(CCCCN4CCN(c5ncccn5)CC4)c3)cc2)cc1` [Example 45]: under setting [1], the ED50 amounted to 12 mg/kg. Besides, the inhibition in vivo at 40 mg/kg under setting [2] amounted to 74%.

In the case of `c1cnc(N2CCN(CCCCn3cc(-n4cccc4)cn3)CC2)nc1` [Example 46], the ED50 under setting [1] is 9.5 mg/kg. The inhibition in vivo at 40 mg/kg under setting [2] was determined as 92%.

With `c1ccc(-c2cnn(CCCCN3CCN(c4ncccn4)CC3)c2)cc1` [Example 47], under setting [1], the ED50 was determined as 11 mg/kg. Besides, the inhibition in vivo at 40 mg/kg under setting [2] amounted to 88%.

With `CCCS(=O)(=O)Nc1cnn(CCCCN2CCN(c3ncccn3)CC2)c1` [Example 52], the ED50 under setting [1] was 40 mg/kg. Besides, the inhibition in vivo at 40 mg/kg under setting [2] came out at 54%.

Regarding `CCS(=O)(=O)Nc1cnn(CCCCN2CCN(c3ncccn3)CC2)c1` [Example 53], the ED50 under setting [1] was 6.4 mg/kg. Also, the inhibition in vivo at 40 mg/kg under setting [2] was found to be 90%.

Take `Clc1ncn(CCCCN2CCN(c3ncccn3)CC2)c1Cl` [Example 59]: the ED50 under setting [1] is 20 mg/kg. In addition, the inhibition in vivo at 40 mg/kg under setting [2] worked out at 75%.

`COc1ccc(N2CCN(CCCCn3cc(Cl)cn3)CC2)cc1` [Example 60]: the ED50 under setting [1] came out at 26 mg/kg. The inhibition in vivo at 40 mg/kg under setting [2] was found to be 63%.

In the case of `COc1ccc(N2CCN(CCCCn3c(C)nc(Cl)c3Cl)CC2)cc1` [Example 61], the ED50 under setting [1] stood at 13 mg/kg. Besides, the inhibition in vivo at 40 mg/kg under setting [2] was determined as 86%.

With `COc1ccccc1N1CCN(CCCCn2cc(Cl)cn2)CC1` [Example 62], the ED50 under setting [1] was found to be 13 mg/kg. For the same compound, under setting [2], the inhibition in vivo at 40 mg/kg worked out at 81%.

`COc1ccccc1N1CCN(CCCCn2c(C)nc(Cl)c2Cl)CC1` [Example 63]: the ED50 under setting [1] came out at 10 mg/kg. In addition, the inhibition in vivo at 40 mg/kg under setting [2] amounted to 89%.

On to `COc1cccc(N2CCN(CCCCn3cc(Cl)cn3)CC2)c1` [Example 64], for which, under setting [1], the ED50 is 20 mg/kg. Also, the inhibition in vivo at 40 mg/kg under setting [2] stood at 68%.

Regarding `COc1ccccc1N1CCN(CCCCn2cccc2)CC1` [Example 66], the ED50 under setting [1] is 27 mg/kg. Further, the inhibition in vivo at 40 mg/kg under setting [2] amounted to 65%.

With `c1ccc(N2CCN(CCCCn3cccc3)CC2)cc1` [Example 67], under setting [1], the ED50 amounted to 8.7 mg/kg. Besides, under setting [2], the inhibition in vivo at 40 mg/kg is 90%.

Turning to `Clc1cnn(CCCCN2CCN(c3ccccc3)CC2)c1` [Example 68], under setting [1], the ED50 worked out at 13 mg/kg. Also, the inhibition in vivo at 40 mg/kg under setting [2] was 94%.

On to `Cc1nc(Cl)c(Cl)n1CCCCN1CCN(c2ccccc2)CC1` [Example 69], for which the ED50 under setting [1] came out at 7.6 mg/kg. Moreover, under setting [2], the inhibition in vivo at 40 mg/kg is 71%.

As to `Cc1nc(Cl)c(Cl)n1CCCCN1CCN(c2ccccc2Cl)CC1` [Example 71], the ED50 under setting [1] turned out to be 9.1 mg/kg. Moreover, under setting [2], the inhibition in vivo at 40 mg/kg stood at 73%.

For `Clc1cccc(N2CCN(CCCCn3cc(Cl)cn3)CC2)c1` [Example 72], under setting [1], the ED50 worked out at 21 mg/kg. Also, under setting [2], the inhibition in vivo at 40 mg/kg was determined as 88%.

The values are drawn from patent publication US5532234A, “Use of 1-[4-[4-aryl (or heteroaryl)-1-piperazinyl]-butyl)-1H-azole derivatives for the preparation of medicaments intended for the treatment of disorders of gastric secretion” (Laboratories Del Dr. Esteve, S.A., priority 1993, dated 1996).
